According to patent US20230250253A1, “PLASTIC POLYMER BIOCONVERSION PROCESS” (GEORGIA STATE UNIVERSITY RESEARCH FOUNDATION, INC., priority 2020, published 2023):
Where two headings read alike, the source gives them in different places.

Legend:
[1] = system: Yarrowia lipolytica strain 78-003; assay: FA profile on lipid- versus carbohydrate-containing media; type: cell-based; settings: for Number of different FAs produced: cells grown 120 h
Source text: The hexadecane medium used for FA profile experiments consisted of: 5% v/v hexadecane, 5 g L^−1 yeast nitrogen broth (w/amino acids), 0.5 g L^−1 KH2PO4, and 0.25 g L^−1 Mg2SO4.
Starch medium used for FA profile experiments consisted of: 50 g L^−1 hydrolyzed starch, 2 g L^−1 yeast nitrogen broth (w/amino acids), 0.5 g L^−1 KH2PO4, and 0.25 g L^−1 Mg2SO4. The medium consisted of: 5.4 g L^−1 Tween- 80®, 1.25 g L^−1 (NH4)2SO4, 2.5 g L^−1 KH2PO4, and 0.830 g L^−1 MgSO4. Glucose (5%) medium used for FA profile experiments consisted of: 50 g L^−1 glucose and 3 g L^−1 yeast extract.
Intracellular Lipid Quantification: A modified Bligh and Dyer extraction (Bligh and Dyer 1959) was used to extract lipids from yeast samples. Post-fermentation OP4 culture was withdrawn and aliquoted into pre-weighed 50 ml conical tubes, and tubes were centrifuged, and pellets washed twice with 0.9% NaCl. Pellets were lyophilized overnight using a BT3.3 EL Lyophilizer Tabletop (SP Scientific, USA), weighed, and suspended in a 2:1 v/v chloroform: methanol mixture (5 ml per 50 mg cell dry weight) and sonicated using a Sonic Dismembrator (Fisher Scientific, USA) at 20 kHz, 20% amplitude with pulsing (40 s on, 20 s off for a total working time of 20 min). The chloroform layer was taken and dried under a nitrogen stream. Dried lipids were weighed and derivatized for GC/MS analysis via base-catalyzed esterification with 2.5 ml sodium methoxide (0.1 M) (Milanesio et al. 2013). The reaction was quenched using 200 μL sulfuric acid (>95%), and 2.5 ml hexane was added to each sample, which was then vortexed and centrifuged (5 min at 5000 rpm). 1.5 ml from the top hexane layer was withdrawn for GC/MS analysis.
GC/MS Analysis of Lipid Profile: The FA profile was characterized with an Agilent 7890A gas chromatograph (GC) attached to a 5977A mass spectrometer detector and equipped with an Agilent J&W HP-5 ms UI capillary column ([…]×0.25 mm×[…]). 1 μL samples were injected via an Agilent 7693 Automatic Liquid Sampler in splitless mode with an inlet temperature of 275° C., using helium as the carrier gas at a flow rate of 1 ml min·1. GC oven temperature was held at 60° C. for 1 min, and ramped to 100° C. (rate: 25° C. min·1; hold 1 min). The oven temperature was then increased to 200° C. (rate: 25° C. min^−1; hold 1 min). The oven temperature is then increased to 220° C. (rate: […]; hold 7 min) and then increased to an ending temperature of 300° C. (rate: 25° C. min·1; hold 2 min). A C8-C24 FAME analytical standard was used during sample analyses as an external standard (Sigma Aldrich, USA).

[2] = system: Yarrowia lipolytica ATCC strain 46482; assay: Intracellular lipid quantification and GC/MS fatty acid profile, OP5 / PCOP5 medium; type: cell-based
Description: Fermentation Optimization: For fermentation optimization experiments, pH, inoculum density, osmolarity, or carbon-nitrogen ratio were altered. For pH experiments, OP5 medium pH was adjusted to 4.0, 5.0, or 6.0 using 2.0 M H2SO4 or 4.0 M NaOH. A Corning 320 pH meter (Corning, USA) was used to measure pH. For starting inoculum density experiments, OP5 medium was inoculated at an inoculum density of either 1.0, 3.0, or 6.0. Aliquots of 1 ml were retrieved from Y. lipolytica overnight culture and inoculum density was measured via absorbance at 600 nm. Based on absorbance readings, a volume of cells corresponding to the desired inoculum density was retrieved from the overnight culture and centrifuged at 4,000 rpm. Pelleted cells were washed twice with 50 mM PBS solution and used to inoculate OP5 medium. […] After the selected parameters were altered, shake flask fermentations were carried out for 120 hours, after which cells were processed and biomass and lipid product formation were analyzed as described below. […]
Component media experiments were carried out in 500 ml Erlenmeyer flasks containing 50 ml medium, and Y. lipolytica was inoculated at an inoculum density of 1.0. […] The supernatant was decanted and cells washed twice with 50 mM PBS before being lyophilized, weighed as described above, and lipids extracted and quantified as described in the following section. […]

[3] = system: Yarrowia lipolytica ATCC strain 46482; assay: Y. lipolytica growth (biomass) in OP5 / PCOP5 medium, fermentation optimization; type: cell-based; settings: added to OP5 medium at 0.75, 1.5 and 3 g L^−1
Description: Polypropylene Growth Medium Preparation: OP5 medium is prepared as follows. 125-ml flat-bottomed borosilicate flasks were used to pyrolyze either virgin PP pellets or sheared postconsumer PP in 3 g batches at 540° C. for 195 minutes. The pyrolysis oil (at 15 g L^−1) was combined with: 5.4 g L^−1 Tween-80@, 5 g L^−1 yeast nitrogen base, 2.5 g L^−1 KH2PO4, 2.5 g L^−1 yeast extract, and 1.25 g L^−1 MgSO4 7H2O. The mixture was emulsified with a hand-held food-grade homogenizer. To compensate for the lack of oleic acid as an emulsifier, the homogenization time of OP5 medium was increased from 90 seconds (mixing time for OP4 medium) to 3 minutes. The resulting homogenized medium was autoclaved for 30 min at 121° C. and 15 psi.
Cultures and Fermentation Conditions: Yarrowia lipolytica ATCC strain 46482 was the strain used in this work. Overnight cultures were prepared from 1 ml 60% glycerol stocks of Y. lipolytica stored at −80° C. […] 1 ml aliquots of overnight cultures were withdrawn and used to measure yeast growth via absorbance. […]
Growth Measurements: Y. lipolytica growth measurements were taken spectrophotometrically and gravimetric measurements. Y. lipolytica culture aliquots of 1 ml were withdrawn, and growth was measured via optical density at 600 nm using an Eppendorf 6131 Biophotometer (Eppendorf, USA). […]

Y. lipolytica = settings: cited from earlier work
[4] = Precipitation of polyester-derived medium as a function of pH; type: physicochemical; settings: PTT1 medium, pH lowered
Description: Method: One g of PTT fiber is added to 4 ml of industrial grade ethanol (100 percent ethanol), 1 ml DMSO+0.41 g NaOH (18 percent w/v). The mixture is refluxed with heating […] for 45 −60 min; the reflux allows for heating of the mixture without the ethanol evaporating. The heating process to depolymerize the fibers is as follows: in the first 5 min, no stirring, then stir for 10 min while the fibers crystallize into a white substance. Continue the heating/reflux for the remainder of the prescribed time, then let the system cool. The product will be a bluish, slurry with white crystals; it may also contain residual carpet materials such as polypropylene, calcium carbonate and adhesive. The bluish liquid is the alcohol fraction, containing the alcohol soluble components derived from PTT (propanol, propanal). The white crystals are the TPA. The pH during reflux is 12 to 13 and the pH of slurry is 12-12.5. The slurry can be centrifuged to separate the alcohol and TPA fractions, or the slurry can be added to an aqueous solution adjusted to pH=11 or 12 using NaOH. This latter step is used to make PTT1 medium. In PTT1 medium, the contents as described are added to 1 liter of pH adjusted water, while mixing; the added compounds will not precipitate. The pH of the resulting solution is adjusted to 9.5, typically using HCl and NaOH. 300 mg/l yeast extract is added as a N source. […]

[5] = Y. lipolytica growing on the medium, this work
[6] = 250 g L^−1 substrate, strain with Poxl-6 and TGL4 inhibited

Structure (SMILES): O=C[C@H](O)[C@@H](O)[C@H](O)[C@H](O)CO [Glucose, glucose]
- C 16:0 in C 16 and C 18 FA profile [1, 5]: 16 percentages
- C 16:1 in C 16 and C 18 FA profile [1, 5]: 21 percentages
- C 18:0 in C 16 and C 18 FA profile [1, 5]: 7 percentages
- C 18:1 in C 16 and C 18 FA profile [1, 5]: 56 percentages
- Number of different FAs produced [1]: 10

Structure (SMILES): [Cl-].[Na+] [NaCl, sodium chloride]
- Effect on fatty acid production or intracellular fatty acid content ([2]; added to OP5 medium at 0.75, 1.5 and 3 g L^−1): no significant impact
- Effect on Y. lipolytica cell growth [3]: inhibited

Structure (SMILES): OCC(O)CO [Glycerol, glycerol]
- Lipid content (Y. lipolytica; [6]): 31 % CDW
- Lipid yield (Y. lipolytica; [6]): 15.5 g/L
- C 16:0 in C 16 and C 18 FA profile (Y. lipolytica; source Aggelis 2002): 15 percentages
- C 16:1 in C 16 and C 18 FA profile (Y. lipolytica; source Aggelis 2002): 2 percentages
- C 18:0 in C 16 and C 18 FA profile (Y. lipolytica; source Aggelis 2002): 11 percentages
- C 18:1 in C 16 and C 18 FA profile (Y. lipolytica; source Aggelis 2002): 47 percentages
- C 18:2 in C 16 and C 18 FA profile (Y. lipolytica; source Aggelis 2002): 21 percentages
- C 16:0 in C 16 and C 18 FA profile (Y. lipolytica; source André et al. 2009): 12 percentages
- C 16:1 in C 16 and C 18 FA profile (Y. lipolytica; source André et al. 2009): 11 percentages
- C 18:0 in C 16 and C 18 FA profile (Y. lipolytica; source André et al. 2009): 9 percentages
- C 18:1 in C 16 and C 18 FA profile (Y. lipolytica; source André et al. 2009): 57 percentages
- C 18:2 in C 16 and C 18 FA profile (Y. lipolytica; source André et al. 2009): 11 percentages
- C 16:0 in C 16 and C 18 FA profile (Y. lipolytica; source Makri et al. 2010): 13 percentages
- C 16:1 in C 16 and C 18 FA profile (Y. lipolytica; source Makri et al. 2010): 17 percentages
- C 18:0 in C 16 and C 18 FA profile (Y. lipolytica; source Makri et al. 2010): 6 percentages
- C 18:1 in C 16 and C 18 FA profile (Y. lipolytica; source Makri et al. 2010): 55 percentages
- C 18:2 in C 16 and C 18 FA profile (Y. lipolytica; source Makri et al. 2010): 7 percentages

Structure (SMILES): CCCCCCCC/C=C\CCCCCCCC(=O)OCCOCC(OCCO)C1OCC(OCCO)C1OCCO (centres unmarked) [Tween® 80, polysorbate 80]
- Fatty acids produced attributable to carbon from the component ([2]; growth in OP5 medium): 0.4 g/L

Structure (SMILES): CCCCCCCCCCCCCCCC [Hexadecane, hexadecane]
- C 16:0 in C 16 and C 18 FA profile [1, 5]: 46 percentages
- C 16:1 in C 16 and C 18 FA profile [1, 5]: 15 percentages
- C 18:0 in C 16 and C 18 FA profile [1, 5]: 10 percentages
- C 18:1 in C 16 and C 18 FA profile [1, 5]: 25 percentages
- C 18:2 in C 16 and C 18 FA profile [1, 5]: 4 percentages
- Number of different FAs produced [1]: 5

Structure (SMILES): O=C(O)c1ccc(C(=O)O)cc1 [TPA, terephthalic acid]
- pH at which it precipitates from the medium [4]: around 8.5
